Assay results as given in ChEMBL document CHEMBL1148796 (J Med Chem, 2007).

Columns and labels:
[1] = tested on: Human immunodeficiency virus 1; assay: Antiviral activity against HIV1 RT Y181C mutant in MT4 cells by MTT assay; format: functional; details: Human immunodeficiency virus 1, MT4; read-out: ED50 (the source's name)
[2] = tested on: Human immunodeficiency virus 1; assay: Antiviral activity against HIV1 RT K103N-Y181C mutant in MT4 cells by MTT assay; format: functional; details: Human immunodeficiency virus 1, MT4; read-out: ED50 (the source's name)
[3] = Cytotoxicity against lymphocytes; format: cell-based, Lymphocyte; details: human, read-out: TC50 (the source's name)
[4] = tested on: Human immunodeficiency virus 1; assay: Antiviral activity against wild type HIV1 3B in lymphocytes assessed as reduction of p24 antigen production; format: functional; details: Human immunodeficiency virus 1, 3B; read-out: ED50 (the source's name)
[5] = tested on: Human immunodeficiency virus 1; assay: Antiviral activity against HIV1 RT 112 mutant in lymphocytes assessed as reduction of p24 antigen production; format: functional; details: read-out: ED50 (the source's name)
[6] = tested on: Human immunodeficiency virus 1; assay: Antiviral activity against HIV1 RT AB1 mutant in lymphocytes assessed as reduction of p24 antigen production; format: functional; details: read-out: ED50 (the source's name)
[7] = tested on: Human immunodeficiency virus 1; assay: Antiretroviral activity against wild type HIV1 in MT4 cells by MTT assay; format: functional; details: Human immunodeficiency virus 1, MT4; read-out: ED50 (the source's name)
[8] = Selectivity index, ratio of TC50 for MT4 cells to ED50 for HIV1; format: functional
[9] = Cytotoxicity against mock-infected C8166 cells by MTT assay; format: cell-based; details: human, read-out: TC50 (the source's name)
[10] = tested on: Human immunodeficiency virus 1; assay: Antiretroviral activity against HIV1 wild type in C8166 cells by MTT assay; format: functional; details: Human immunodeficiency virus 1, C8166; read-out: ED50 (the source's name)
[11] = Selectivity index, ratio of TC50 for C8166 cells to ED50 for HIV1; format: functional
[12] = tested on: Human immunodeficiency virus 1; assay: Antiviral activity against HIV1 3B in MT4 cells by MTT assay; format: functional; details: Human immunodeficiency virus 1, 3B, read-out: ED50 (the source's name)
[13] = Cytotoxicity against MT4 cells by MTT assay; format: cell-based; details: human, read-out: TC50 (the source's name)
[14] = Selectivity index, ratio of TC50 for lymphocytes to ED50 for HIV1 3B; format: functional, Homo sapiens
[15] = Selectivity index, ratio of TC50 for lymphocytes to ED50 for HIV1 RT 112 mutant; format: functional
[16] = Selectivity index, ratio of TC50 for lymphocytes to ED50 for HIV1 RT AB1 mutant; format: functional
[17] = Cytotoxicity against macrophages; format: cell-based, Macrophage; details: human, read-out: TC50 (the source's name)
[18] = tested on: Human immunodeficiency virus 1; assay: Antiretroviral activity against HIV1 3BBa-L in macrophages assessed as reduction of p24 antigen production; format: functional; details: Human immunodeficiency virus 1, 3BBa-L; read-out: ED50 (the source's name)
[19] = Selectivity index, ratio of TC50 for macrophages to ED50 for HIV1 3BBa-L; format: functional
[20] = biological target: Human immunodeficiency virus type 1 reverse transcriptase (Human immunodeficiency virus 1) (UniProt Q72547)
Description: Inhibition of wild type HIV1 RT

[21] = tested on: Human immunodeficiency virus type 1 reverse transcriptase (Human immunodeficiency virus 1), Q72547 [K103N]
Description: Inhibition of HIV1 RT K103N mutant

[22] = tested on: Human immunodeficiency virus type 1 reverse transcriptase (Human immunodeficiency virus 1), Q72547 [Y181I]
[23] = tested on: Human immunodeficiency virus type 1 reverse transcriptase (Human immunodeficiency virus 1), Q72547 [L100I]
Description: Inhibition of HIV1 RT L100I mutant

SMILES | EC50 [1] [nM] | EC50 [2] [nM] | EC50 [7] [nM] | Selectivity index [8] | CC50 [9] [nM] | EC50 [10] [nM] | Selectivity index [11] | EC50 [12] [nM] | CC50 [13] [nM] | further results
O=C1Nc2ccc(Cl)cc2[C@@](C#CC2CC2)(C(F)(F)F)O1 [EFAVIRENZ] | 10 | 200 |  |  |  |  |  |  |  | CC50 [3]: > 20000 nM; EC50 [4]: 7 nM; EC50 [5]: > 20000 nM; EC50 [6]: > 20000 nM
NC(=O)c1[nH]c2ccc(F)c(F)c2c1S(=O)(=O)c1ccccc1 | 600 | 18000 | 8 | >2500 | > 20000 | 10 | >2000 | 8 | > 20000 | 
Cc1cc(C)cc(S(=O)(=O)c2c(C(N)=O)[nH]c3cc(F)c(Cl)cc23)c1 | 50 | > 20000 | 12 | >1667 | > 20000 | 10 | >2000 | 12 | > 20000 | 
NC(=O)c1[nH]c2cc(Cl)c(Cl)cc2c1S(=O)(=O)c1ccccc1 | 1700 | > 20000 | 80 | >250 | > 20000 | 100 | >200 | 80 | > 20000 | 
Cc1cc(C)cc(S(=O)(=O)c2c(C(N)=O)[nH]c3cc(Cl)c(Cl)cc23)c1 | 1000 | > 20000 | 10 | >2000 | > 20000 | 15 | >1333 | 10 | > 20000 | 
Cc1cc(C)cc(S(=O)(=O)c2c(C(N)=O)[nH]c3ccc(Cl)c(F)c23)c1 | 4 | 300 | 0.5 | >40000 | > 20000 | 0.8 | >25000 | 0.5 | > 20000 | CC50 [3]: > 20000 nM; EC50 [4]: 8 nM; EC50 [5]: 10 nM; EC50 [6]: 12 nM; Selectivity index [14]: >2500; Selectivity index [15]: >2000; Selectivity index [16]: >1667; CC50 [17]: > 20000 nM; EC50 [18]: 10 nM; Selectivity index [19]: >2000; ID50 [20]: 3 nM; ID50 [21]: 6 nM; ID50 [22]: 29 nM; ID50 [23]: 2 nM
Cc1cc(C)cc(S(=O)(=O)c2c(C(N)=O)[nH]c3c(Cl)cc(Cl)cc23)c1 | 4200 | > 20000 | 21 | >952 | > 20000 | 12 | >1667 | 21 | > 20000 | 
Cc1cc(C)cc(S(=O)(=O)c2c(C(N)=O)[nH]c3c(F)cc(F)cc23)c1 | 1500 | > 20000 | 7 | >2857 | > 20000 | 25 | >800 | 7 | > 20000 | 
NC(=O)c1[nH]c2cc(F)c(F)cc2c1S(=O)(=O)c1ccccc1 | 8200 | > 20000 | 16 | >1250 | > 20000 | 20 | >1000 | 16 | > 20000 | 
Cc1cc(C)cc(S(=O)(=O)c2c(C(N)=O)[nH]c3cc(F)c(F)cc23)c1 | 400 | > 20000 | 20 | >1000 | > 20000 | 30 | >667 | 20 | > 20000 | 
Cc1cc(C)cc(S(=O)(=O)c2c(C(N)=O)[nH]c3cc(Cl)c(F)cc23)c1 | 700 | 12000 | 50 | 360 | > 20000 | 50 | >400 | 50 | 18000 | 
Cc1cc(C)cc(S(=O)(=O)c2c(C(N)=O)[nH]c3ccc(F)c(Cl)c23)c1 | 2200 | > 20000 | 8 | >2500 | > 20000 | 9 | >2222 | 8 | > 20000 | 
Cc1ccnc2c1NC(=O)c1cccnc1N2C1CC1 [NEVIRAPINE] | 14000 | > 20000 |  |  |  |  |  | 50 |  | CC50 [3]: > 20000 nM; EC50 [4]: 90 nM; EC50 [5]: > 20000 nM; EC50 [6]: > 20000 nM; Selectivity index [14]: >222; ID50 [20]: 400 nM; ID50 [21]: 7000 nM; ID50 [22]: > 20000 nM; ID50 [23]: 9000 nM
Cc1cc(C)cc(S(=O)(=O)c2c(C(N)=O)[nH]c3ccc(F)c(F)c23)c1 | 50 | 1200 | 1 | >20000 | > 20000 | 3 | >6667 | 1 | > 20000 | CC50 [3]: > 20000 nM; EC50 [4]: 20 nM; EC50 [5]: 130 nM; EC50 [6]: 84 nM; Selectivity index [14]: >1000; Selectivity index [15]: >154; Selectivity index [16]: >238; CC50 [17]: > 20000 nM; EC50 [18]: 23 nM; Selectivity index [19]: >870; ID50 [20]: 1.7 nM; ID50 [21]: 1000 nM; ID50 [22]: 2050 nM; ID50 [23]: 90 nM
